According to patent publication EP3539964A1, “BASE ACETAMIDE GLYCERIN ETHER MOLECULE, CHEMICAL SYNTHESIS METHOD THEREFOR, AND APPLICATIONS THEREOF IN FIELD OF GENE THERAPY” (Peking University, priority 2016, dated 2018):

Legend:
[1] = Particle size and morphology of liposomes by electron microscopy; assay type: physicochemical; conditions: liposome/nanoparticles self-assembled in water, electron microscopy (Fig. 5)
Method: The base-acetamide glycerin ether molecule has an amphiphilic structure and can be prepared into a supramolecular structure such as a liposome. Taking DNTA as an example, the preparation method of liposome is as follows: DNTA (1.18 mg, 1.56 µmol) is dissolved in methanol (1 mL), vortexed to fully dissolve, after centrifugation, DNTA methanol solution (12.8 µL) is measured out and adding to a 200 µL centrifuge tube, added with PBS (100 µL), vortexed (10 s) to mix well. The solution was placed in a PCR program for annealing. Procedure: Heating at 95°C for 10 minutes, cool down 5°C every 5 minutes until 15°C, then store at 4°C. After annealing was completed, the centrifuge tube was incubated at 40°C for 30 min for the complete evaporation of methanol to obtain the liposome solution.
Under transmission electron microscope (TEM), it can be seen that the neutral base lipid carrier molecules DNCA and DNTA can form stable and uniform nanoparticles in aqueous solution. The size of the DNTA molecules assembled in water is around 150 nm. The size of the liposome formed by self-assembly of DNCA carrier molecules in water is around 180 nm (Fig. 5).

[2] = Cytotoxicity using CCK-8 kit; assay type: cell-based; conditions: for viability at 72 h, 60 µM: 72 hours after addition, concentration of 60 µM, read-out: cell survival rate; for cytotoxicity: CCK-8 kit (Fig. 6)
Method: When base acetamide glycerin ether molecules should is to be used as novel biomaterials in the field of gene therapy, they must have good biocompatibility. Two base acetamide glycerin ether compounds (DOCA and DOTA) were studied for cytotoxicity using CCK-8 kit. […] After 72 hours of addition of the base acetamide glycerin ether compound at a concentration of 60 µM, the cell survival rate was close to 100%, indicating good biocompatibility (Fig. 6).

[3] = system: Hela cells; experiment: Transfection of FAM-labeled polyA/G, fluorescence intensity by flow cytometry; assay type: cell-based; conditions: liposomes mixed with FAM-polyA at base ratio 5/1, 100 nM FAM-polyA, 4 hours, Hela cells (Fig. 7)
From the text: Taking DNTA and DNCA as examples, FAM-labeled polyA/G was used as a template to study the nucleic acid transfection abilities of thymine base acetamide glycerin ethers. The specific coating and transfection process is as follows: DNTA or DNCA liposomes were formulated as mixed solutions with FAM-polyA or FAM-polyG at a base ratios of 5/1. […] The DNA-free and DNA-only wells were used as two negative controls, and the transfection reagent Lipofectamine 2000-DNA complex (the method of addition of transfection reagent and DNA group according to the protocol) was added as a positive control; • (3) Washing three times with 500 µL PBS; • (4) After 4 hours, the liquids in the culture wells were aspirated, after adding 250 µL of 5% trypsin each, they were placed in 1.5 mL EP tubes, the cells were fixed with 4% paraformaldehyde for 15 min; • (5) Centrifuging, discarding the supernatant, adding 400 µL PBS in each tube; • (6) Fluorescence intensity was measured by using flow cytometry;

[4] = system: MCF-7 cells; experiment: Antisense nucleic acid (Cenersen) uptake; assay type: cell-based; conditions: liposomes, compared with blank group and DOCA/DOTA liposome groups (Fig. 8)
Method: The cells used in the transfection experiments were Hela cells. • (1) Plating: 300,000 cells were added to the six-well plate, and the volume per well was 1.8 mL; • (2) After 18-24 h, the samples were diluted in an appropriate amount of opti-MEM, blowing and suction with a pipette to mix well, 20 µL of the mixed […] The DNA-free and DNA-only wells were used as two negative controls, and the transfection reagent Lipofectamine 2000-DNA complex (the method of addition of transfection reagent and DNA group according to the protocol) was added as a positive control; • (3) Washing three times with 500 µL PBS; • (4) After 4 hours, the liquids in the culture wells were aspirated, after adding 250 µL of 5% trypsin each, they were placed in 1.5 mL EP tubes, the cells were fixed with 4% paraformaldehyde for 15 min; • (5) Centrifuging, discarding the supernatant, adding 400 µL PBS in each tube; • (6) Fluorescence intensity was measured by using flow cytometry;
The procedure was the same as the transfection experiments of DNCA- and DNTA-packed PolyG/PolyA (using DOCA and DOTA as controls), the cell line was selected from MCF-7 cell line.

## CCCCCCCC/C=C\CCCCCCCCOCC(CNC(=O)Cn1ccc(N)nc1=O)OCCCCCCCC/C=C\CCCCCCCC (stereo not shown) [DNCA, 1,2,-bis(oleyl)-glycero-3-amine-(cytosin-1-yl)-acetyl ester]
[1]
  size: around 180 nm
[2]
  viability at 72 h, 60 µM: ~100%
  cytotoxicity: no obvious cytotoxicity
[3]
  transfection of FAM-polyA into cells: can successfully transport FAM-polyA into cells
[4]
  uptake of antisense nucleic acid: could significantly increase the uptake ability of MCF-7 cells

## CCCCCCCC/C=C\CCCCCCCCOCC(CNC(=O)Cn1cc(C)c(=O)[nH]c1=O)OCCCCCCCC/C=C\CCCCCCCC (stereo not shown) [DNTA, 1,2,-bis(oleyl)-glycero-3-amine-(thymidine-1-yl)-acetyl ester]
[1]
  size: around 150 nm
[2]
  viability at 72 h, 60 µM: ~100%
  cytotoxicity: no obvious cytotoxicity
[3]
  transfection of FAM-polyA into cells: can successfully transport FAM-polyA into cells
[4]
  uptake of antisense nucleic acid: could significantly increase the uptake ability of MCF-7 cells
